Results published in ChEMBL document CHEMBL3600356, “Optimization of permethyl ningalin B analogs as P-glycoprotein inhibitors” (Bioorg Med Chem, 2015).
Converted amounts (≈) assume the structure as drawn.

What was measured:
Homo sapiens = species: Homo sapiens; test: Modulation of p-glycoprotein in human MDA435/LCC6MDR cells assessed as ratio of IC50 for paclitaxel in absence of drug to IC50 for paclitaxel in presence of 1 uM of drug after 5 days by MTS assay; assay type: cell-based
[1] = Cytotoxicity against human MDA435/LCC6 cells assessed as cell survival at 1 uM after 3 days by MTS/PMS assay; assay type: cell-based; conditions: mda-435/lcc6, 72 h
[2] = Cytotoxicity against human MDA435/LCC6MDR cells assessed as cell survival at 1 uM after 3 days by MTS/PMS assay; assay type: ADME, cell-based; conditions: 72 h
[3] = Solubility of the compound in phosphate buffer at pH 7.4 by capillary electrophoresis system; assay type: physicochemical

solubility [3] [µg/mL]	Structure (SMILES)	Ratio IC50 (Homo sapiens)	Activity [1]	Activity [2]
	COc1ccc(C2=C(c3ccc(OC)c(OC)c3)C(=O)N(C(=O)N3CCN(CC(=O)c4ccc(S(C)(=O)=O)cc4)CC3)C2=O)cc1OC	1	Non-toxic	Non-toxic
	COc1ccc(C2=C(c3ccc(OC)c(OC)c3)C(=O)N(C(=O)N3CCN(CC(=O)c4ccc(OCc5ccccc5)c(OC)c4)CC3)C2=O)cc1OC	5.4	Non-toxic	Non-toxic
	COc1ccc(C2=C(c3ccc(OC)c(OC)c3)C(=O)N(C(=O)Nc3ccc4c(c3)C(=O)OC4)C2=O)cc1OC	1.1	Non-toxic	Non-toxic
0.405 (≈ 0.664 µM)	COc1ccc(C2=C(c3ccc(OC)c(OC)c3)C(=O)N(C(=O)c3ccc(OCc4ccccc4)c(OC)c3)C2=O)cc1OC		Non-toxic	Non-toxic
	COc1ccc(C2=C(c3ccc(OC)c(OC)c3)C(=O)N(CC(=O)c3cc(Br)c(OCc4ccccc4)cc3OCCO)C2=O)cc1OC	21.4	Non-toxic	Non-toxic
	CCCCC1OC(=O)c2cc(NC(=O)N3C(=O)C(c4ccc(OC)c(OC)c4)=C(c4ccc(OC)c(OC)c4)C3=O)ccc21 (stereo not drawn)	2.4	Non-toxic	Non-toxic
